This note sets out measurements from ChEMBL document CHEMBL1201862, “PubChem BioAssay data set” (2004).

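Compound exposure: 48 hours, 5 concentrations, 96-well plates. GI50: concentration for 50% inhibition of growth.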 Activity calls are given as the source filed them. Rule as the data show it: active = GI50 up to about 1.1 µM and inactive = higher. A value given as a limit tells only on which side of the number the result lay.

Some test systems named below: KM-20L2; DMS-114; M19-MEL; RXF 631; LXFL 529; XF498; HOP-18; DLD-1; SNB-78.
Common to all, as to assay: DTP human tumour cell line panel, 48 h

The GI50 is the concentration that inhibits growth by half. In the case of `O=c1nc(NC2CCCCO2)ccn1CCO` (configuration not stated), the GI50 was > 100 µM (inactive) in the assay on KM-20L2; > 100 µM (inactive) in the assay with DMS-114; > 100 µM (inactive) in the assay on M19-MEL; > 100 µM (inactive) with RXF 631; > 100 µM (inactive) with LXFL 529; 51.4 µM (inactive) in the assay on XF498. The GI50 with HOP-18, with DLD-1 and in the assay with SNB-78 was > 100 µM (inactive) throughout.

`CCn1c(C)nn2c(=O)c3ccccc3nc2c1=O`: the GI50 in the assay on KM-20L2, in the assay on DMS-114, in the assay with M19-MEL, with LXFL 529, with XF498 and with HOP-18 was > 100 µM (inactive) each time. The GI50 with DLD-1 and in the assay on SNB-78 was > 100 µM (inactive) in each case.

As for `N#Cc1ccccc1NC(=O)/C(=N\Nc1ccc([N+](=O)[O-])cc1)C1C(=O)NC(=O)NC1=O`, the GI50 with KM-20L2, with DMS-114, with M19-MEL, with LXFL 529, with DLD-1 and with SNB-78 was > 100 µM (inactive) throughout.

`C=C(CN(C)C)C(=O)c1ccccc1C`: the GI50 in the assay with KM-20L2 was > 67.1 µM (inactive); in the assay on DMS-114, 21.2 µM (inactive); in the assay with M19-MEL it was 23.4 µM (inactive); with RXF 631 it was > 100 µM (inactive); with LXFL 529 it was 15.7 µM (inactive); with XF498, > 50.9 µM (inactive). Also, the figures for the GI50 with HOP-18, in the assay on DLD-1 and in the assay on SNB-78 were 22.9 µM (inactive), 20.9 µM (inactive) and > 100 µM (inactive), respectively.

Regarding `COc1ccc(/C=C(\C(C)=O)C(=O)Nc2ccccc2)cc1`, the GI50 with DMS-114, in the assay on M19-MEL, in the assay on LXFL 529, with HOP-18, in the assay with DLD-1 and in the assay with SNB-78 was > 100 µM (inactive) throughout.

Take `CC1=NN(c2ccccc2)C(=O)C1/N=N/c1ccc(Br)cc1C` (configuration not stated): the concentration for 50% growth inhibition (GI50) is 0.634 µM (active) in the assay on KM-20L2; > 100 µM (inactive) in the assay on DMS-114; > 100 µM (inactive) with M19-MEL; 32.4 µM (inactive) in the assay on RXF 631; > 100 µM (inactive) with LXFL 529; 3.62 µM (inactive) with HOP-18. Further, the GI50 is > 100 µM (inactive) with DLD-1 and 79.6 µM (inactive) in the assay on SNB-78.

As to `CC(C)c1ccc(O)c(Cc2cc(C(C)C)cc(Cc3cc(C(C)C)ccc3O)c2O)c1`, the GI50 with KM-20L2 was 2.07 µM (inactive); with DMS-114 it was 1.61 µM (inactive); in the assay on M19-MEL, 1.61 µM (inactive); in the assay with LXFL 529, 1.49 µM (inactive); with XF498 it was 1.41 µM (inactive); in the assay with DLD-1, 2.01 µM (inactive). Further, the GI50 in the assay on SNB-78 was 2.05 µM (inactive).

On to `O=C(c1ccc(Cl)cc1)N(C(=S)N1CCN(c2ccccc2)CC1)C1CCCCC1`, for which the GI50 was > 100 µM (inactive) with KM-20L2; 70 µM (inactive) in the assay with DMS-114; > 100 µM (inactive) in the assay on M19-MEL; > 100 µM (inactive) in the assay with LXFL 529; > 100 µM (inactive) in the assay with HOP-18; > 100 µM (inactive) with DLD-1. The GI50 in the assay on SNB-78 is > 100 µM (inactive).

Consider `COc1ccc(NC(=O)C(=O)c2c(O)c3ccc(O)cc3oc2=O)c([N+](=O)[O-])c1`, for which the GI50 in the assay on KM-20L2, in the assay on DMS-114, in the assay on M19-MEL, with RXF 631, with LXFL 529 and with DLD-1 was > 100 µM (inactive) each time.

Take `CCCCCCCCC/C=C1\CCC(CN2CCOCC2)C1=O` (configuration not stated): the GI50 is 7.35 µM (inactive) in the assay on KM-20L2; 2.92 µM (inactive) in the assay on DMS-114; 3.28 µM (inactive) with M19-MEL; 5.62 µM (inactive) in the assay with RXF 631; 1.6 µM (inactive) with LXFL 529; 1.54 µM (inactive) in the assay with HOP-18. Also, the GI50 in the assay with DLD-1 was 1.96 µM (inactive); in the assay with SNB-78 it was 4.29 µM (inactive).

With `O=C(N/C=C1\C(=O)Oc2ccccc2C1=O)Nc1ccccc1`, the GI50 in the assay with KM-20L2 was > 100 µM (inactive); in the assay with DMS-114, 44.9 µM (inactive); with M19-MEL, 55.8 µM (inactive); in the assay with LXFL 529 it was 81.1 µM (inactive); with XF498, 74.3 µM (inactive); in the assay on HOP-18 it was 27.5 µM (inactive). Besides, the results for the GI50 with DLD-1 and in the assay on SNB-78 were 42.6 µM (inactive) and 30.1 µM (inactive), respectively.

Turning to `CCN(CC)c1ccc(/N=N/c2ccc(-c3nc4ccc[n+](C)c4o3)cc2)cc1`, the GI50 was 13 µM (inactive) with KM-20L2; 3.7 µM (inactive) in the assay on DMS-114; 4.98 µM (inactive) in the assay on M19-MEL; 12.7 µM (inactive) in the assay on RXF 631; 3.81 µM (inactive) with LXFL 529; 11.3 µM (inactive) in the assay with XF498. Besides, the GI50 with HOP-18 was 23.7 µM (inactive); in the assay on DLD-1, 7.33 µM (inactive); in the assay on SNB-78, 11.4 µM (inactive).

As for `CC1(C(=O)Nc2ccc3cc4ccccc4cc3c2)CC2(C)CC(C)(C1)C(O)NC2=O` (configuration not stated), the GI50 is 85.3 µM (inactive) in the assay on KM-20L2; 92 µM (inactive) in the assay on DMS-114; > 100 µM (inactive) with M19-MEL; > 100 µM (inactive) in the assay with LXFL 529; > 100 µM (inactive) in the assay on XF498; 93.5 µM (inactive) with HOP-18. Further, the figures for the GI50 with DLD-1 and with SNB-78 were 32.9 µM (inactive) and > 100 µM (inactive), respectively.

For `OC(C1CO1)C(O)C1CO1` (configuration not stated), the GI50 in the assay with KM-20L2 was 140 µM (inactive); in the assay with DMS-114, 35.6 µM (inactive); with M19-MEL, 74.8 µM (inactive); with XF498 it was 37.2 µM (inactive); in the assay with HOP-18, 145 µM (inactive); in the assay with DLD-1, > 150 µM (inactive). In addition, the GI50 in the assay on SNB-78 was 85.9 µM (inactive).

As to `O=C(Nc1c(Cl)cc([N+](=O)[O-])cc1Cl)C(=O)C(C(=O)c1ccncc1)C1OC(=O)c2ccccc21` (configuration not stated), the GI50 in the assay with KM-20L2, in the assay on DMS-114, in the assay on M19-MEL, in the assay on RXF 631, in the assay with LXFL 529 and in the assay on XF498 was > 100 µM (inactive) in each case. The GI50 in the assay on HOP-18, in the assay on DLD-1 and with SNB-78 was > 100 µM (inactive) each time.

Consider `COC(=O)c1ccccc1N(C(=O)c1ccccc1)c1ccccc1C`, for which the GI50 with KM-20L2 is 73.8 µM (inactive); in the assay on DMS-114, 38.6 µM (inactive); with M19-MEL it was 48.2 µM (inactive); in the assay on LXFL 529, 85.5 µM (inactive); in the assay on XF498, 22.7 µM (inactive); with HOP-18, 41.2 µM (inactive). Also, in the assay on DLD-1, the GI50 is 43 µM (inactive).

As for `O=[N+]([O-])c1ccc(Cl)c(C2CC(c3cccc4ccccc34)=Nc3ccccc3S2)c1` (configuration not stated), the GI50 was 29.3 µM (inactive) in the assay with KM-20L2; 20.2 µM (inactive) in the assay on DMS-114; 20.2 µM (inactive) with M19-MEL; > 65 µM (inactive) with RXF 631; 18.5 µM (inactive) in the assay with LXFL 529; 26.9 µM (inactive) in the assay on HOP-18. For the same compound, the GI50 was 13.2 µM (inactive) in the assay on DLD-1 and 26.5 µM (inactive) in the assay on SNB-78.

Regarding `c1ccc2c3c([nH]c2c1)C1C2CCCCN2C(c2ccncc2)N1CC3` (configuration not stated), the GI50 with KM-20L2 is 24 µM (inactive); in the assay on DMS-114 it was 27.2 µM (inactive); in the assay with M19-MEL it was 37.2 µM (inactive); in the assay on LXFL 529, 38.1 µM (inactive); in the assay on XF498 it was 23.6 µM (inactive); with SNB-78 it was 42.8 µM (inactive).

Consider `CCOC(=O)Nc1ccc(S(=O)(=O)OC)cc1.CCOC(=O)Nc1ccc(S(=O)(=O)OC)cc1.NNC(=O)c1ccncc1`, for which the GI50 in the assay with KM-20L2, with DMS-114, in the assay on M19-MEL, in the assay on RXF 631, with LXFL 529 and in the assay with HOP-18 was > 50 µM (inactive) each time. For the same compound, the GI50 is 9.04 µM (inactive) in the assay on DLD-1 and > 50 µM (inactive) in the assay with SNB-78.

`COc1ccccc1/C=C1\CCC(CCN(C)C)(C2=CCCC2)C1=O` (configuration not stated): the GI50 in the assay with KM-20L2 was 1.7 µM (inactive); in the assay with DMS-114, 17.3 µM (inactive); in the assay on M19-MEL, 17.9 µM (inactive); in the assay with RXF 631 it was 13.9 µM (inactive); in the assay with LXFL 529 it was 16.1 µM (inactive); with XF498, 16.5 µM (inactive). Moreover, the GI50 is 26.5 µM (inactive) in the assay on HOP-18, 16.8 µM (inactive) in the assay on DLD-1 and 23.9 µM (inactive) in the assay with SNB-78.

With `O=C1N[C@H]2[C@H](O)[C@H](O)[C@@H](O)[C@H](O)[C@@H]2c2cc3c(c(O)c21)OCO3` [PANCRATISTATIN], the 50% growth inhibitory concentration (GI50) is 0.0445 µM (active) with KM-20L2; 0.0412 µM (active) with DMS-114; 0.0388 µM (active) with M19-MEL; 0.649 µM (active) in the assay on RXF 631; 0.541 µM (active) in the assay with LXFL 529; 0.0237 µM (active) with XF498. The values for the concentration for 50% growth inhibition (GI50) with HOP-18, with DLD-1 and in the assay with SNB-78 were 0.0598 µM (active), 0.0415 µM (active) and 0.0452 µM (active), respectively.
